For four compounds, IC50 results are on record in patent publication US20050203127A1, “2-(Phenyl)-2h-pyrazole-3-carboxylic acid-n-4-(thioxo-heterocyclyl)-phenyl-amide derivatives and corresponding imino-heterocyclyl derivatives and relates compounds for use as inhibitors of the coagulation factors xa and/or viia for treating thromboses” (priority 2002, published 2005).

One test addresses factor Xa (Homo sapiens, UniProt P00742). The test is described as follows: Factor Xa inhibition (FXa-IC50). The test is classed as biochemical. An excerpt:
The inhibition of factor Xa by the compounds according to the invention and the measurement of the anticoagulant and antithrombotic activity can be determined by conventional in-vitro or in-vivo methods. A suitable method is described, for example, by J. Hauptmann et al. in Thrombosis and Haemostasis 1990, 63, 220-223.
The inhibition of factor Xa can be measured, for example by the method of T. Hara et al. in Thromb. Haemostas. 1994, 71, 314-319.

In the next test the target is TF/FVIIa (Homo sapiens, UniProt P08709). As to the kind of experiment: TF/factor VIIa inhibition (TF/FVIIa-IC50). It counts as biochemical. From the text: The inhibition of factor VIIa by the compounds according to the invention and the measurement of the anticoagulant and antithrombotic activity can be determined by conventional in-vitro or in-vivo methods. A conventional method for the measurement of the inhibition of factor VIIa is described, for example, by H. F. Ronning et al. in Thrombosis Research 1996, 84, 73-81.
Sequence of TF/FVIIa (P08709 213-466 limits assumed): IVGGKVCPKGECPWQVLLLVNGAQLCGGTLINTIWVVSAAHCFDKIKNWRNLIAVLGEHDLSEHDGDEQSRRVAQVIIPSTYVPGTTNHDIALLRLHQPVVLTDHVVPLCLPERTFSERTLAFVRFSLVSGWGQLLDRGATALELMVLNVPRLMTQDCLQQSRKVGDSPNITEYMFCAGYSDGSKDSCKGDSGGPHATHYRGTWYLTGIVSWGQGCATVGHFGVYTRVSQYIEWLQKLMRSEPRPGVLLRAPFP
Sequence of TF/FVIIa (P08709 61-212 limits assumed): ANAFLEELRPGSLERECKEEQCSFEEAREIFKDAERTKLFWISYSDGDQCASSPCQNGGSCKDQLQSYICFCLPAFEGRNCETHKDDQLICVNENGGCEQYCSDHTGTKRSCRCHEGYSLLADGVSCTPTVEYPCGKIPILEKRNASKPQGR
Sequence of TF/FVIIa (P13726 33-295 partner): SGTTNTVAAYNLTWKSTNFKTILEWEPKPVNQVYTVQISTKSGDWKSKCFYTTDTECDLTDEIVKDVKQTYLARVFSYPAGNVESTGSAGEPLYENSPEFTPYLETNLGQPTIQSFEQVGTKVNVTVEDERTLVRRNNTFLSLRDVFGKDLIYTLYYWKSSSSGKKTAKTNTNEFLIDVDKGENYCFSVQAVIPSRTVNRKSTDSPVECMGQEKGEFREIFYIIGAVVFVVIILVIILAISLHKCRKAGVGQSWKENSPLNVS

Sequence of factor Xa (P00742 235-488 limits assumed): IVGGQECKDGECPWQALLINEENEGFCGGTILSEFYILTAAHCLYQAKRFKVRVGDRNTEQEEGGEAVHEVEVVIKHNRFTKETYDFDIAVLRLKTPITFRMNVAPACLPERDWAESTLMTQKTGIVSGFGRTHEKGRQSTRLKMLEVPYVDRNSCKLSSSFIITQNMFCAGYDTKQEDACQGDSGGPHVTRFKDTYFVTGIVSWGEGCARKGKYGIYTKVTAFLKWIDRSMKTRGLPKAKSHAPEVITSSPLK
Sequence of factor Xa (P00742 41-179 limits assumed): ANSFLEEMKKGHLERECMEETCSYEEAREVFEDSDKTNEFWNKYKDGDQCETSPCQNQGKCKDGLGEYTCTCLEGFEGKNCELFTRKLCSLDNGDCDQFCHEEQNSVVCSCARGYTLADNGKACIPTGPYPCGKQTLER

Broadly, the IC50 is the midpoint of a concentration-inhibition curve. Low readings indicate inhibition by little substance, high ones a need for much substance. `N=C1CCCN1c1ccc(NC(=O)c2cc(C(F)(F)F)nn2-c2cccc(CN)c2)cc1` [AA, N-[4-(2-iminopyrrolidin-1-yl)phenyl]-2-(3-aminomethylphenyl)-5-trifluoromethyl-2H-pyrazole-3-carboxamide]: the IC50 on factor Xa turned out to be 9.6 nM; against TF/FVIIa, 23 nM.

For the compound `N#CN=C1NCCN1c1ccc(NC(=O)c2cc(C(F)(F)F)nn2-c2cccc(C(N)=O)c2)cc1` [CA, N-[4-(2-cyanoiminoimidazolidin-1-yl)phenyl]-2-(3-aminocarbonylphenyl)-5-trifluoromethyl-2H-pyrazole-3-carboxamide], the IC50 on factor Xa is 200 nM; against TF/FVIIa it was 69 nM.

`NC(=O)c1cccc(-n2nc(C(F)(F)F)cc2C(=O)Nc2ccc(N3CCCC3=S)c(Cl)c2)c1` [BB, N-[3-chloro-4-(2-thioxopyrrolidin-1-yl)phenyl]-2-(3-aminocarbonylphenyl)-5-trifluoromethyl-2H-pyrazole-3-carboxamide]: the IC50 on factor Xa was 330 nM; against TF/FVIIa, 180 nM.

As to `CCc1nn(-c2ccc(NC(=O)c3cc(C(F)(F)F)nn3-c3cccc(C(N)=O)c3)cc2)c(=N)s1` [CB, N-[4-(2-imino-5-ethyl-3H-1,3,4-thiadiazol-3-yl)phenyl]-2-(3-aminocarbonylphenyl)-5-trifluoromethyl-2H-pyrazole-3-carboxamide], the 50% inhibitory concentration (IC50) against factor Xa is 92 nM; against TF/FVIIa it was 150 nM.
